The OPERA property sets (Mansouri et al. 2018)
Residues, ends and D or L forms follow the SMILES beside them. *: point of attachment. Cbz = O=C(OCc1ccccc1)*

| SMILES | logP |
| --- | --- |
| O=C(Cn1ccnc1[N+](=O)[O-])N(CO)CO | -1.59 |
| COCCOc1ccccc1OCCOC | 1.12 |
| NNC(=O)c1ccccc1I | 0.47 |
| C[N+](C)(C)Cc1cccc(Cl)c1.[Br-] | -1.81 |
| CCN(CC)CCNC(=O)c1cc(S(C)(=O)=O)ccc1OC | 0.9 |
| CC=CCOC(=O)C1C(C=C(C)C)C1(C)C (stereo not drawn) | 5.09 |
| CCCCNc1nnc(C(C)C)c(=O)n1N | 1.78 |
| O=C(NCC(O)CO)Nc1ccccc1 (stereo not drawn) | 0.28 |
| COc1ccccc1N=NN(C)C | 2.34 |
| CN(C)S(=O)(=O)c1ccccc1 | 1.35 |
| FC1C(Cl)C(Cl)C(Cl)C(Cl)C1Br (stereo not drawn) | 3.28 |
| Nc1ccc2c(c1)C(c1ccccc1)=NCC(=O)N2 | 1 |
| CC(=O)CNc1ccccc1C(N)=O | 0.61 |
| O=[N+]([O-])c1ccc(Oc2ccc(C(F)(F)F)cc2[N+](=O)[O-])cc1 | 3.65 |
| ClC1C(Cl)C(Cl)C(I)C(Cl)C1Cl (stereo not drawn) | 4.05 |
| Cc1ccccc1C1=NCC(=O)Nc2ccc(Cl)cc21 | 3.12 |
| O=C(O)Cc1ccc(OCc2ccccc2)c(Cl)c1 | 3.43 |
| CC1=Nc2c(Cl)cccc2S(=O)(=O)N1 | 0.72 |
| Nc1cnc2ccccc2n1 | 1.5 |
| C=C(C)C(=O)OC(C)C | 2.25 |
| NC(=S)c1ncccn1 | -0.34 |
| O=C(O)Cc1ccc(OCc2ccccc2)c(Br)c1 | 3.51 |
| CN(C)CNC(=O)c1ccccc1 | 0.63 |
| NNC(=O)c1ccc(Br)cc1 | 1.28 |
| CC(=O)Oc1cccc(C(F)(F)F)c1 | 2.63 |
| CNC(=N)NC(=N)Nc1ccc(Cl)cc1 | 1.58 |

| SMILES | logP |
| --- | --- |
| CN(Cc1ccccc1)N=Nc1ccc(C(N)=O)cc1 | 2.76 |
| CSc1nnc(C)c(=O)n1N | -0.16 |
| CC(=O)OCC1=C(C(=O)O)N2C(=O)[C@@H](NC(=O)CBr)[C@H]2SC1 | -0.7 |
| Nc1nc(N)nc(-c2cccc(Br)c2)n1 | 2.44 |
| Cc1cc(-n2c(=O)cc(C)n2C)nc(C)n1 | 0.24 |
| Cc1cc(NC(=O)NC(=N)N)ccc1Cl | 2.19 |
| CCN(CC)/N=N/c1nc[nH]c1C(N)=O | 0.78 |
| O=C1NC(=S)SC1=CC=Cc1ccc([N+](=O)[O-])o1 | 0.93 |
| OC1C(Cl)C(Cl)C(Cl)C(Cl)C1Cl (stereo not drawn) | 2.54 |
| COc1cccc(C=C(C(C)=O)C(C)=O)c1 | 1.79 |
| CNP(=O)(OC)SC (stereo not drawn) | -0.07 |
| CCN1C(=N)SC(=Cc2ccc([N+](=O)[O-])o2)C1=O | 1.44 |
| CSC(C)=NOC(=O)N(C)SN(C)C(=O)c1ccc(Cl)cc1 | 2.6 |
| CC(C)C(NC(=O)C(Cc1ccccc1)NC(=O)OCc1ccccc1)C(=O)O (stereo not drawn) (Cbz-Phe-Val-OH; configuration not given here) | 2.88 |
| O=NN1CCCN(N=O)CC1 | -0.51 |
| CNC(=O)Oc1ccc(C(C)(C)C)c(C)c1 | 3.38 |
| O=[N+]([O-])c1ccc(OCCn2ccnc2)cc1 | 1.69 |
| CCCCNP(=O)(OC)SC (stereo not drawn) | 0.94 |
| COc1ccc(Br)cc1Cc1cnc(N)nc1N | 2.44 |
| CN(C)C(=O)Oc1ccc(Cl)cc1 | 2.27 |
| COc1ccc(CN(C)N=Nc2ccc(C(=O)O)cc2)cc1 | 4.43 |
| CCCCCCCCCCCCCCCCCC[n+]1ccccc1.[I-] | 3.68 |
| CCCNC(=NC#N)NC | 0.42 |
| CSc1nc(C)cc(C)n1 | 1.86 |
| CCOCCn1ccnc1[N+](=O)[O-] | 0.53 |
| CC(=O)Oc1ccc(N=C2C=CC(=O)C=C2)cc1 | 1.43 |

| SMILES | logP |
| --- | --- |
| NC1CC2OC1c1ccccc12 (stereo not drawn) | 0.75 |
| O=C1CN=C(c2ccccc2Br)c2cc(Cl)ccc2N1 | 3.17 |
| CCCCN(SN(C)C(=O)Oc1cccc2c1OC(C)(C)C2)C(=O)OC | 4.6 |
| Cc1nnc(C=NO)s1 | 0.78 |
| O=C1CCC(=O)N1c1ccccc1Cl | 0.56 |
| COc1cc(Cc2cnc(N)nc2N)ccc1SC | 1.92 |
| CC(C)NNC(=O)C(C)(C)Oc1ccc(Cl)cc1 | 2.56 |
| CCSc1c(OC)cc(Cc2cnc(N)nc2N)cc1OC | 1.79 |
| CC1C(C)N(N=O)C(C)C(C)N1N=O (stereo not drawn) | 0.91 |
| CC(=O)C(C#N)=NNc1ccc2c(c1)OC(F)(F)C(F)(F)O2 | 5.31 |
| NC(=O)CCCCn1nnc2ccccc21 | 0.58 |
| OCC1OC(Oc2ccc3ccccc3c2)C(O)C(O)C1O (stereo not drawn) | 0.76 |
| CC(C)(C)C(=O)C(C#N)=NNc1cc(Cl)c(Cl)cc1Cl | 5.86 |
| CNC(=S)NCCSCc1nc[nH]c1C | 0.5 |
| CCS(=O)(=O)c1cc(OC)c(OC)c(OC)c1 | 1.05 |
| CN1CCN(C)C1=Nc1ncc([N+](=O)[O-])s1 | 0.95 |
| CCOP(=S)(OCC)Oc1ccccc1 | 3.46 |
| Cc1nc(-c2ccccn2)no1 | 0.79 |
| CC(=O)N(CCO)c1c(I)c(C(=O)NCC(O)CO)c(I)c(C(=O)NCC(O)CO)c1I (stereo not drawn) | -2.47 |
| CCCSC1OC(CO)C(O)C(O)C1O (stereo not drawn) | -1.18 |
| CC(=O)C(C#N)=NNc1ccccc1Cl | 4 |
| CC(=O)Nc1cc(OCC(=O)O)ccc1Cl | 0.75 |
| OCCCn1nnc2ccccc21 | 0.91 |
| COC(=O)N(C)SN(C)C(=O)Oc1cccc2c1OC(C)(C)C2 | 3 |
| CC(C)Sc1nnc(C(C)C)c(=O)n1N | 2.06 |
| Nc1nc(N)nc(-c2c(Cl)cccc2Cl)n1 | 1.38 |

| SMILES | logP |
| --- | --- |
| COc1ccc(Cc2cnc(N)nc2N)cc1Cl | 1.65 |
| CSC(C)=NOC(=O)N(C)SN(C)C(=O)OC1CCCCC1 | 3.6 |
| CCOC(=O)c1ccc2ncccc2c1 | 2.64 |
| c1ccc(-c2ncnc3ccccc23)cc1 | 2.71 |
| CCN(CCOC(C)=O)c1ccccc1 | 2.04 |
| CCOC(=O)N(C)SN(C)C(=O)ON=C(C)SC | 1.9 |
| CCC(C)NP(=O)(OC)SC (stereo not drawn) | 0.95 |
| Clc1ccc(Cl)c(N=C2NCCN2)c1 | 2.04 |
| CC(=O)Nc1cccc(OC(C)=O)c1 | 1.03 |
| CC(=O)N(CCCl)c1ccc(CC(=O)O)cc1 | 1.2 |
| CCSCC1=Nc2cc(Cl)ccc2S(=O)(=O)N1 | 2.26 |
| NC1CC2CCC1c1ccccc12 (stereo not drawn) | 2.29 |
| CCCNP(=O)(OC)Oc1cc(Cl)c(Cl)cc1Cl (stereo not drawn) | 3.7 |
| CNC(=O)NN | -2.2 |
| COc1cc(Cc2cnc(N)nc2N)cc(OC)c1C(C)=O | 1.1 |
| COC1(C(F)(F)F)C(Cl)C(Cl)C(Cl)C(Cl)C1Cl (stereo not drawn) | 4.06 |
| CCCC(C)n1nnc2ccccc21 (stereo not drawn) | 2.95 |
| CNC(=O)c1ccccc1/N=N/N(C)C | 1.83 |
| CCOC(=O)C(=Cc1ccccc1C)C(C)=O | 2.66 |
| COc1cc(OC)c(CC(C)N)c(OC)c1 (stereo not drawn) | 1.57 |
| COc1cc(Cc2cnc(N)nc2N)cc(O)c1O | -0.31 |
| CC1CNC(=Nc2ncc([N+](=O)[O-])s2)N1 (stereo not drawn) | 1.82 |
| CC(=O)C(C#N)=NNc1cc(C(F)(F)F)ccc1Cl | 5.08 |
| CN(N=O)C(=O)Oc1cccc2ccccc12 | 2.85 |
| CN1C(=O)SC(=CC=Cc2ccc([N+](=O)[O-])o2)C1=O | 1.4 |
| O=S(=O)(Nc1cccc(C(F)(F)F)c1)C(F)(F)F | 4.5 |

| SMILES | logP |
| --- | --- |
| O=C(CNC(=O)c1ccccc1)Oc1ccc(F)cc1 | 2.46 |
| Oc1ccc(C(c2ccc(O)cc2)c2nccs2)cc1 | 2.96 |
| CCCCCn1nnc2ccccc21 | 3.22 |
| COC(=O)COc1c(OC)cc(Cc2cnc(N)nc2N)cc1OC | 0.55 |
| Clc1cc2ccccc2nn1 | 1.57 |
| CNc1nc(=O)cc(-c2ccc([N+](=O)[O-])o2)s1 | 0.86 |
| Cc1[nH]c(=O)n(OC(C)C)c(=O)c1Br | 0.45 |
| NS(=O)(=O)c1cccc(OC(=O)CNC(=O)c2ccccc2)c1 | 0.84 |
| CN(C)/N=N/c1cc(C(N)=O)cc(C(N)=O)c1 | 0.22 |
| CCOC(=O)CCCN1C(=O)C=CC1=O | 0.67 |
| CC(=O)C(=Cc1ccc(F)cc1)C(C)=O | 1.65 |
| O=C(NC(CO)C(O)c1ccccc1)C(Cl)Cl (stereo not drawn) | 0.94 |
| COCc1c(OC)cc(Cc2cnc(N)nc2N)cc1OC | 1.19 |
| Cc1cc(C)c(NC2=NCCN2)c(C)c1 | 2.32 |
| CCC12CC3CC(N)(C1)CC(CC)(C3)C2 | 4.36 |
| Clc1cc(Cl)c(Cl)c(-c2ccc(Cl)c(Cl)c2Cl)c1 | 7.39 |
| CN(C)Cc1ccco1 | 1.19 |
| C[N+](C)(C)Cc1cccnc1.[Br-] | -3.5 |
| CCOP(=S)(OCC)SCS(=O)(=O)C(C)(C)C | 2.48 |
| CCOc1cc(Cc2cnc(N)nc2N)cc(OCC)c1C(C)=O | 2.04 |
| CNN=CCCc1ccccc1 | 1 |
| CC(=O)N(C)/N=N/c1ccc(F)cc1 | 2.77 |
| CSC(C)=NOC(=O)N(C)SN(C)C(=O)OC(C)(C)C | 2.8 |
| Cc1cccc(N=NN(C)C)c1 | 2.85 |
| COC(=O)C1CCCC(NC(=O)N(CCCl)N=O)C1 (stereo not drawn) | 1.89 |
| Fc1cccc(F)c1N=C1NCCN1 | 0.93 |

| SMILES | logP |
| --- | --- |
| Cc1cccc(OC2OC(CO)C(O)C(O)C2O)c1 (stereo not drawn) | -0.2 |
| COc1ccc(Cc2cnc(N)nc2N)cc1C | 1.91 |
| CCOC(=O)N(C)SN(C)C(=O)Oc1cccc2c1OC(C)(C)C2 | 3.5 |
| CNC(=O)C(Cc1ccccc1)NC(C)=O (stereo not drawn) | 0.4 |
| CCC(C)c1ccccc1OC(=O)N(C)C (stereo not drawn) | 3.31 |
| CC12CC3(C)CC(C)(C1)CC(N)(C2)C3 | 4.01 |
| CCCCC1OC(=O)c2cc(N)ccc21 (stereo not drawn) | 2.86 |
| CON(C)C(=O)Nc1ccc(OCCc2ccccc2)cc1 | 4.5 |
| Cc1[nH]c(=O)n(OCCCl)c(=O)c1Br | 0.3 |
| NNC(=O)c1cccc(N)c1 | -0.86 |
| Nc1nnc(S(N)(=O)=O)s1 | -0.9 |
| COc1cc(S(=O)(=O)CCN2CCCCC2)cc(OC)c1OC | 1.6 |
| CC1=Nc2cc([N+](=O)[O-])c(Cl)cc2S(=O)(=O)N1 | 1.42 |
| O=S1(=O)NC(c2cccs2)=Nc2ccccc21 | 1.68 |
| CCN(CC)c1nc(N(C)C)nc(N(C)C)n1 | 3.45 |
| COC(=O)C(C#N)=NNc1cc(C(F)(F)F)cc(C(F)(F)F)c1 | 5.02 |
| CN(C)C(=O)Nc1ccc(Br)cc1 | 2.19 |
| COc1nc(C)cc(-n2[nH]c(C)cc2=O)n1 | 1.03 |
| CCCCCCNC(=O)NN | 0.46 |
| Cc1cccc(C)c1NC(=O)CN(C)C | 0.94 |
| CC(C)=CC1C(C(=O)OCc2ccc(C#N)cc2)C1(C)C (stereo not drawn) | 4.91 |
| CNP(=O)(OC)Oc1cc(Cl)c(Cl)cc1Cl (stereo not drawn) | 3.06 |
| O=NN(CCCl)C(=O)NC1CCC(=O)NC1=O (stereo not drawn) | 0.37 |
